Source: US10500249B2, “Compositions and methods for preventing or treating diseases, conditions, or processes characterized by aberrant fibroblast proliferation and extracellular matrix deposition” (MOERAE MATRIX, INC., priority 2014, dated 2019)
Entries after “also recorded” stand apart in the source; their conditions may differ. Ends that are not written are not given here.

Columns and labels:
[1] = test system: bleomycin-induced lung fibrosis; test: Bleomycin mouse model of pulmonary fibrosis (treatment model); assay type: in vivo, C57BL/6 mice; details: for collagen deposition (hydroxyproline assay, whole left lung): day 28 post bleomycin; for lung scarring, histology (H&E and Masson's blue trichrome): daily day 14 to 28 post bleomycin
Experimental: (§1) A mouse model of pulmonary fibrosis was generated by administering 0.025 U of bleomycin/PBS intratracheally to C57BL/6 mice. […] At 21 day post bleomycin delivery (for prevention model) or 28 post bleomycin delivery (for treatment model), groups of mice were sacrificed with a sodium pentobarbital injection (120 mg/kg) and the chest cavity was opened. The right mainstem bronchus was ligated and the right lung was removed. The trachea was cannulated and the left lung was perfused with 4% formaldehyde at 21 cm H2O pressure. The tissue blocks then were embedded in paraffin, and […] sections were prepared for staining. Sections from each animal were stained with hematoxylin and eosin (H&E) to visualize cells or with Masson's Trichrome staining to highlight collagen deposition. […] Stained sections were mounted onto a labeled glass slide with organic mounting medium.
The classic bleomycin model, as depicted in FIG. 10, has been used widely in the literature in the pre-fibrotic stage to test efficacy of any intervention.
More specifically, fibrotic loci in the lungs were induced by delivering intratracheally about 0.025 U of bleomycin (dissolved in PBS) to C57BL/6 mice. […] Mice were sacrificed with a sodium pentobarbital injection (120 mg/kg) and the chest cavity was opened. The right mainstem bronchus was ligated and the right lung is removed. The trachea was cannulated and the left lung was perfused with 4% formaldehyde at 21 cm H2O pressure. The tissue blocks then were embedded in paraffin, and […] sections were prepared, and stained with hematoxylin and eosin (H&E; for pathological examination) or Masson's Trichrome (for collagen staining)
Next, collagen deposition was determined quantitatively by using the standard hydroxyproline assay with whole left lung. Total collagen (soluble and insoluble) deposition was assessed by analyzing hydroxyproline concentrations in murine lungs day 28 post bleomycin injury.

[2] = test system: bleomycin-induced lung fibrosis; test: Bleomycin mouse model of pulmonary fibrosis (prevention model); assay type: in vivo, C57BL/6 mice; details: for collagen accumulation (Masson's Trichrome staining) / fibrotic loci formation / lung fibrosis (H&E staining): daily day 7 to 21 post bleomycin
Experimental: as §1
Briefly, fibrotic loci in the lungs of the mice were induced by delivering intratracheally about 0.025 U of bleomycin (dissolved in PBS) to C57BL/6 mice. […] Briefly, mice were sacrificed with a sodium pentobarbital injection (120 mg/kg) and the chest cavity was opened. The right mainstem bronchus was ligated and the right lung was removed. The trachea was cannulated and the left lung was perfused with 4% formaldehyde at 21 cm H2O pressure. The tissue blocks then were embedded in paraffin, and […] sections were prepared, and stained with hematoxylin and eosin (H&E; for pathological examination) or Masson's Trichrome (for collagen staining)
Next, total collagen levels in the lungs of the bleomycin-injured mice (FIG. 12) were analyzed quantitatively by computing a constant conversion factor (7.5) for collagen from hydroxyproline concentrations (Neuman R. and Logan M, J Biol Chem., 186(2):549-56, 1950, incorporated by reference).
Next, the effect of increasing doses of MK2 peptide inhibitors on collagen deposition was examined in vivo using the bleomycin mouse model of idiopathic pulmonary fibrosis (prevention model). Briefly, C57-BL/6 mice were subjected to bleomycin injury at day 0.

[3] = test system: IL-6; test: Plasma cytokine level, bleomycin treatment model; assay type: in vivo, mouse; details: 24 hours after final administration
[4] = test system: splenic T cells; test: Autologous mixed lymphocyte reaction, splenic T cells of bleomycin mice; assay type: in vivo, C57-BL/6 mice
Excerpt: Recent studies highlighted a key role for T lymphocytes in bleomycin-induced fibrosis (Wilson, M. et al., The Journal of Experimental Medicine, 207(3): 535-552, 2010). […] Specifically, the ability of C57BL/6 purified antigen-presenting cells to induce proliferation in C57BL/6 T lymphocytes was examined in the assay.
C57-BL/6 mice were subjected to bleomycin injury at day 0. […] Splenic T cells were isolated and cultured alone or in the presence of autologous antigen presenting cells (APCs from C57-BL/6 mice) or stimulated with antibodies against CD3 (α-CD3) for 48 h. The cells then were radiolabeled with […] thymidine for 16 h and assessed for proliferation rates.

[5] = test system: human fetal lung fibroblasts (IMR-90), fibronectin; test: TGF-β-mediated fibronectin expression; assay type: cell-based; details: 1 h pre-treatment, then TGF-β1 (2 ng/ml) 72 h
Experimental: Fibronection was measured as secreted fragments in the conditioned media. Equal amounts (14 μg) of total proteins from the conditioned media were loaded in each lane.

[6] = target: T1, p70S6K (h) (Homo sapiens, UniProt P23443); test: Kinase Profiling Assay; assay type: biochemical
T1 construct: purchased Millipore
T1 sequence (P23443 whole entry): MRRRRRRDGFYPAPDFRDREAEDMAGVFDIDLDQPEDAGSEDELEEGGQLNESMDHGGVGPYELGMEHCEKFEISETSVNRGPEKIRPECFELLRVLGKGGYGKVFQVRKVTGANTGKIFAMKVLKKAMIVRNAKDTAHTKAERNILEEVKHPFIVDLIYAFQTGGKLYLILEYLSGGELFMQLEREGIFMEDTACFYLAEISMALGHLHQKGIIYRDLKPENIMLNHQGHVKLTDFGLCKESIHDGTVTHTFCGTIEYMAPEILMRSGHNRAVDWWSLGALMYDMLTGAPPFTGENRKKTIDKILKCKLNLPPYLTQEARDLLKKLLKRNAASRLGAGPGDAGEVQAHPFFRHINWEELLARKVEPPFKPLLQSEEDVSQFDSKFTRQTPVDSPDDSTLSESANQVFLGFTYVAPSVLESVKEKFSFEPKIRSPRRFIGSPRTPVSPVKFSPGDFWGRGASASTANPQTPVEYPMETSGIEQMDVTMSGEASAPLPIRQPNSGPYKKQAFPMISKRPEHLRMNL
Experimental: (§2) Every kinase activity measurement was conducted in duplicate.
(§3) Specifically, in these assays, a positively charged substrate is phosphorylated with a radiolabeled phosphate group from an ATP if the kinase is not inhibited by an inhibitor peptide. The positively charged substrate then is attracted to a negatively charged filter membrane, quantified with a scintillation counter, and compared to a 100% activity control.
(§4) In addition to determining the IC50 of the compound, the specificity of MK2 inhibitory peptides was assessed by examining activities of all 266 human kinases available for testing in the Millipore kinase profiling service (Table 1).

[7] = target: MAPKAP-K3 (h) (Homo sapiens, UniProt Q16644); test: Kinase Profiling Assay; assay type: biochemical; details: read-out: inhibition of kinase activity of MK3
Sequence of MAPKAP-K3 (h) (Q16644 whole entry): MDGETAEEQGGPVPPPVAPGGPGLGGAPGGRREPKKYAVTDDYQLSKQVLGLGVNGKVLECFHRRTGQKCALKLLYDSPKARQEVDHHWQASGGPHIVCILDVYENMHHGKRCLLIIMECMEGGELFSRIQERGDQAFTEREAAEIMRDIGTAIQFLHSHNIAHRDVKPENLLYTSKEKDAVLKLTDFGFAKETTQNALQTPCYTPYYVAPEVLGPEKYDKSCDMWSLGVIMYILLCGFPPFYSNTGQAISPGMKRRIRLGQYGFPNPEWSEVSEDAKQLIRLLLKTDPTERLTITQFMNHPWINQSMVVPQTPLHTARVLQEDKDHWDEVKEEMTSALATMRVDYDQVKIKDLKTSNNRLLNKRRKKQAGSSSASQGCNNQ
Experimental: as §2, §3, §4

[8] = target: TrkB (h) (Homo sapiens, UniProt Q16620); test: Kinase Profiling Assay; assay type: biochemical; details: read-out: inhibition of kinase activity of TrkB
Sequence of TrkB (h) (Q16620 32-822): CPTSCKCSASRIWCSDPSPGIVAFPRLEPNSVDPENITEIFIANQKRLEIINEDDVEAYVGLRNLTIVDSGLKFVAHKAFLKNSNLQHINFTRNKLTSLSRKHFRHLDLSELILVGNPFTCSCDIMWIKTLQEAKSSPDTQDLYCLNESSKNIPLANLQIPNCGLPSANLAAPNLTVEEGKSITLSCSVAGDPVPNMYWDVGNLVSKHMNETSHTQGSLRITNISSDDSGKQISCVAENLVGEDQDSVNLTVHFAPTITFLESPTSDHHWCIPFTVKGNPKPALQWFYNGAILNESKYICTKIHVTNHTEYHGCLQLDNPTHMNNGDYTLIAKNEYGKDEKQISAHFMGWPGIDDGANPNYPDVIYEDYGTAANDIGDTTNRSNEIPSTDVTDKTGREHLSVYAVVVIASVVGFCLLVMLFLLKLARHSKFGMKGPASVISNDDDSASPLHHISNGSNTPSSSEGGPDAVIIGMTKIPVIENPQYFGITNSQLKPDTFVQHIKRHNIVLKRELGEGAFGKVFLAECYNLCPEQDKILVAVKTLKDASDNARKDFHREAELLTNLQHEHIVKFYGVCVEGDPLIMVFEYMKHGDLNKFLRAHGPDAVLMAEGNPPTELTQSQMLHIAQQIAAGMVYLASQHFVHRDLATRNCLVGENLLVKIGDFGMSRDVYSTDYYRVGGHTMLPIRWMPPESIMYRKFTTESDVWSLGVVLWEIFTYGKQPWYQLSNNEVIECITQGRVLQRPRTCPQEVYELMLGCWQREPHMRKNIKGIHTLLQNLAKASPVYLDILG
Experimental: as §2, §3, §4

[9] = target: MAPKAP-K2 (h) (Homo sapiens, UniProt P49137); test: Kinase Profiling Assay; assay type: biochemical; details: read-out: inhibition of kinase activity of MK2
Sequence of MAPKAP-K2 (h) (P49137 whole entry): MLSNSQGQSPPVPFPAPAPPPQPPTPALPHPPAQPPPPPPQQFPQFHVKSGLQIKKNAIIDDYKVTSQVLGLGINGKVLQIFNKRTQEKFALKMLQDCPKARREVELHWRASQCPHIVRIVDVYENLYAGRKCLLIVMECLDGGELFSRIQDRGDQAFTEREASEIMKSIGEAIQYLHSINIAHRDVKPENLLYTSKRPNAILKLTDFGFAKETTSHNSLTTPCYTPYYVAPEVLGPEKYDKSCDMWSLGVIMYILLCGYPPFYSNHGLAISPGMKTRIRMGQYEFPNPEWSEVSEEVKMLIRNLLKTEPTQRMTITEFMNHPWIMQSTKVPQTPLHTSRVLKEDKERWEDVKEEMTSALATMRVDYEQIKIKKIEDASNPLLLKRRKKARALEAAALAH
Experimental: as §2, §3, §4

[10] = test system: phospho-Thr^334-MAPKAPK2 (activated MK2); test: Activated MK2 immunostaining of lung sections, bleomycin treatment model; assay type: in vivo, C57-BL/6 mice; details: day 14 to 28
Excerpt: (§5) Briefly, C57-BL/6 mice were subjected to bleomycin injury at day 0. […] Formalin-fixed lung tissue sections were immunostained against phospho-Thr^334 MK2. Control staining was with biotinylated secondary IgG antibody. Streptavidin-conjugated horseradish peroxidase was used with 3,3′-diaminobenzidene as substrate and nuclei was counterstained with hematoxylin.

[11] = test system: alpha-smooth muscle actin (α-SMA); test: α-SMA immunostaining of lung sections, bleomycin treatment model; assay type: in vivo, C57-BL/6 mice; details: day 14 through 28
Excerpt: as §5, with “C57-BL/6” for “Briefly, C57-BL/6”, “α-SMA.” for “phospho-Thr^334 MK2.”, “hematoxylin. Original magnifications: 20×” for “hematoxylin.”

[12] = test system: MLCK (h); test: Kinase Profiling Assay; assay type: biochemical, human; details: 100 μM
Experimental: as §2, §3, §4

[13] = test system: SGK (h); test: Kinase Profiling Assay; assay type: biochemical, human; details: 100 μM
Experimental: as §2, §3, §4

[14] = test system: TNF-α; test: Plasma cytokine level, bleomycin treatment model; assay type: in vivo, mouse; details: 24 hours after final administration
[15] = test system: human fetal lung fibroblasts (IMR-90), α-SMA; test: TGF-β-induced myofibroblast activation, α-SMA immunoblot; assay type: cell-based; details: 1 h pre-treatment, then TGF-β1 (2 ng/ml) 48 h
Excerpt: Cell lysates were immunoblotted against antibodies for α-SMA (a marker for myofibroblast activation) and GAPDH (loading control).

With YARAAARQARAKALARQLGVAA [MMI-0100] the “collagen deposition (hydroxyproline assay, whole left lung)” value ([1]; 50 μg/kg/day IP from day 14) was “arrests significant collagen deposition; also recorded: significantly arrested further progression of collagen deposition”, the “collagen deposition (hydroxyproline assay, whole left lung)” value ([1]; 50 μg/kg/day nebulizer from day 14) was “arrests significant collagen deposition; also recorded: significantly arrested further progression of collagen deposition” and the “lung scarring, histology (H&E and Masson's blue trichrome)” value ([1]; intraperitoneal) was “ameliorates bleomycin-induced lung fibrosis; also recorded: rescued”. The “lung scarring, histology (H&E and Masson's blue trichrome)” value ([1]; nebulized) was “ameliorates bleomycin-induced lung fibrosis; also recorded: rescued”, the “collagen levels in the lung (Masson's blue trichrome staining), dose response” value ([2]; 25, 50 or 75 μg/kg daily IP, day 7 through day 21) was “prevents fibrosis due to bleomycin injury in a dose-dependent manner; also recorded: decrease in collagen levels” and the “collagen accumulation (Masson's Trichrome staining)” value ([2]; intraperitoneal) was “reduced collagen accumulation”. The “fibrotic loci formation / lung fibrosis (H&E staining)” value ([2]; intraperitoneal) was “protects against bleomycin-induced lung fibrosis; also recorded: significantly reduced development of fibrotic loci formation”, the “collagen accumulation (Masson's Trichrome staining)” value ([2]; nebulization) was “reduced collagen accumulation” and the “fibrotic loci formation / lung fibrosis (H&E staining)” value ([2]; nebulization) was “protects against bleomycin-induced lung fibrosis; also recorded: significantly reduced development of fibrotic loci formation”. For the same sequence, the “plasma level of IL-6” value ([3]; intraperitoneal) was “significantly reduced”, the “plasma level of IL-6” value ([3]; nebulized) was “significantly reduced” and the “toxicity (proliferative response of splenic T cells to α-CD3)” value ([4]; 50 μg/kg/day, day 7 to 21) was “no toxicity”. The systemic distribution ([4]; nebulized, inferred from lack of splenic T cell response) was “little systemic distribution”, the “protein level of fibronectin (secreted fragments in conditioned media)” value [5] was “effectively prevented myofibroblast activation” and the activity at 100 µM [6] was 89%. For the same sequence, the inhibition at 100 µM [7] was greater than 65%, the inhibition at 100 µM [8] was greater than 65% and the inhibition at 100 µM [9] was greater than 65%. The “phospho-Thr^334-MAPKAPK2 staining (activated form of MK2) in lung” value ([10]; 50 μg/kg daily intraperitoneal) was “decreased phospho-Thr^334-MAPKAPK2 staining”, the “phospho-Thr^334-MAPKAPK2 staining (activated form of MK2) in lung” value ([10]; 50 μg/kg daily nebulized) was “as effective as conventional systemic injections in attenuating MK2 activation; also recorded: decreased phospho-Thr^334-MAPKAPK2 staining” and the “level of α-SMA in bleomycin-injured lungs” value ([11]; 50 μg/kg/day intraperitoneal) was “inhibits myofibroblast alpha-smooth muscle actin (α-SMA) activation; also recorded: significantly attenuated”. The “level of α-SMA in bleomycin-injured lungs” value ([11]; 50 μg/kg/day nebulizer) was “inhibits myofibroblast alpha-smooth muscle actin (α-SMA) activation; also recorded: significantly attenuated”, the “% activity” value [12] was 85% and the “% activity” value [13] was 128%. The “plasma level of TNF-α” value ([14]; intraperitoneal) was “significantly reduced”, the “plasma level of TNF-α” value ([14]; nebulized) was “significantly reduced” and the “protein level of α-smooth muscle actin (α-SMA)” value [15] was “effectively prevented myofibroblast activation”.
